According to US20220274987A1, “PYRAZINO [1,2-B]QUINAZOLINE-3,6-DIONES DERIVATIVES, THEIR PRODUCTION AND USES THEREOF” (CIIMAR -CENTRO INTERDISCIPLINAR DE INVESTIGAÇÃO MARINHA E …, priority 2019, published 2022):
Converted amounts (≈) assume the structure as drawn. Read-outs that look alike come from different tables or passages of the source.

Tests used:
[1] = test system: Plasmodium falciparum 3D7 strain; assay: In vitro susceptibility assay of P. falciparum, SYBR Green I; type: cell-based; settings: for IC50: Plasmodium falciparum; for antimalarial activity (in words): P. falciparum 3D7
Procedure: The principle of the in vitro susceptibility test to malaria is to assess the degree of development of parasites P. falciparum in the presence of different concentrations of the compounds.
In the present disclosure, the antimalarial activity was also evaluated. Each compound was lyophilized and solubilized in DMSO (Sigma-Aldrich) to obtain a final concentration of 5 mM. Some intermediate dilutions were made to achieve the final concentration of 10 μM in the first well of the plate.
In an embodiment, the culture of P. falciparum was carried out as follows. […] Parasites were cultivated at 5% hematocrit, 37° C. and atmosphere with 5% of CO2, human serum was replaced with 0.5% AlbuMAXII (Invitrogen™) in the culture medium. Synchronized cultures were obtained by treatments with a 5% (m/v) solution of D-sorbitol (Sigma-Aldrich).
In the present disclosure, the in vitro susceptibility assay of P. falciparum using SYBR Green I was carried out as follows. […] Briefly, early ring stage parasites (>80% of rings, 3% haematocrit and 1% parasitaemia) were tested in duplicate in a 96-well plate and incubated with the compounds for 48 h (37° C., 5% CO2), parasite growth was assessed with SYBR Green I (Thermo Fisher Scientific). Each compound was tested in concentrations ranging from 10 to 0.001 μM. Fluorescence intensity was measured with a microplate reader with excitation and emission wavelengths of 485 and 535 nm, respectively, and analysed by nonlinear regression using GraphPad Prism 5 demo version to determine

[2] = test system: Staphylococcus aureus ATCC 29213; assay: MIC/MBC broth dilution (CLSI), S. aureus reference strain; type: cell-based; settings: for MBC / MIC: Staphylococcus aureus, ATCC29213
Excerpt: (§1) In the present disclosure, two Gram-positive—Staphylococcus aureus ATCC 29213 and Enterococcus faecalis ATCC […] and two Gram-negative—Escherichia coli ATCC 25922 and Pseudomonas aeruginosa ATCC 27853—reference bacterial strains were used. When it was possible to determine a minimal inhibitory concentration (MIC) value for these strains, clinically relevant strains were also used. These included methicillin-resistant S. uareus (MRSA) 66/1, isolated from public buses, as well as a isolate sensitive to the most commonly used antibiotic families (S. aureus 40/61/24) and two vancomycin-resistant Enterococcus (VRE) strains isolated from river water, E. faecalis B3/101 and E. faecalis A5/102, which is sensitive to ampicillin. Frozen stocks of all strains were grown on Mueller-Hinton agar (MH-BioKar Diagnostics, Allone, France) at 37° C. for 24 h. All bacterial strains were sub-cultured on MH agar and incubated overnight at 37° C. before each assay, in order to obtain fresh cultures.
(§2) An initial screening of the antibacterial activity of the compounds was performed by the Kirby-Bauer disk diffusion method, as recommended by the Clinical and Laboratory Standards institute (CLSI). Briefly, sterile 6 mm blank paper disks (Oxoid, Basingstoke, England) impregnated with 15 μg of each compound were placed on inoculated MH agar plates. A blank disk with DMSO was used as a negative control. MH inoculated plates were incubated for 18-20 hours at 37° C. At the end of the incubation, the inhibition halos where measured. The minimal inhibitory concentration (MIC) was used to determine the antibacterial activity of each compound, in accordance with the recommendations of the CLSI. Two-fold serial dilutions of the compounds were prepared in Mueller-Hinton Broth 2 (MHB2-Sigma-Aldrich, St. Louis, Mo., USA) within the concentration range of 0.062-64 μg/mL. Cefotaxime (CTX) ranging between 0.031-16 μg/mL was used as a control. Sterility and growth controls were included in each assay. Purity check and colony counts of the inoculum suspensions were also performed in order to ensure that the final inoculum density closely approximates the intended number ([…]). The MIC was determined as the lowest concentration at which no visible growth was observed. The minimal bactericidal concentration (MBC) was assessed by spreading 10 μL of culture collected from wells showing no visible growth on MH agar plates. The MBC was determined as the lowest concentration at which no colonies grew after 16-18 hours incubation at 37° C. These assays were performed in duplicate.

S. aureus 40/61/24 = assay: MIC/MBC broth dilution (CLSI), sensitive clinical isolate; type: cell-based; settings: Staphylococcus aureus
Excerpt: as §1, §2

S. aureus 66/1 (MRSA) = assay: MIC/MBC broth dilution (CLSI), MRSA; type: cell-based; settings: Staphylococcus aureus
Excerpt: as §1, §2

E. faecalis ATCC 29212 = assay: MIC/MBC broth dilution (CLSI), E. faecalis reference strain; type: cell-based, Enterococcus faecalis
Excerpt: as §1, §2

E. faecalis A5/102 (VRE) = assay: MIC/MBC broth dilution (CLSI), VRE sensitive to ampicillin; type: cell-based; settings: Enterococcus faecalis
Excerpt: as §1, §2

E. faecalis B3/101 (VRE) = assay: MIC/MBC broth dilution (CLSI), VRE; type: cell-based; settings: Enterococcus faecalis
Excerpt: as §1, §2

[3] = P. falciparum (3D7), 48 h, read-out: IC50
[4] = S. aureus ATCC 29213, read-out: MIC
[5] = Enterococcus faecalis, ATCC29212
[6] = S. aureus 40/61/24, read-out: MIC
[7] = Enterococcus faecalis, ATCC29212, read-out: MIC

Compound	IC50 [1, 3] [µM]	antibacterial (inhibitory) effect (in words) ([2]; S. aureus ATCC 29213)	MBC ([2]; S. aureus ATCC 29213) [µg/mL]	MIC [2, 4] [µg/mL]	MBC (S. aureus 40/61/24; S. aureus 40/61/24) [µg/mL]	MBC (S. aureus 66/1 (MRSA)) [µg/mL]	MIC (S. aureus 66/1 (MRSA)) [µg/mL]	MBC (E. faecalis ATCC 29212; [5]) [µg/mL]	also measured
CCN(CC)CCCC(C)Nc1ccnc2cc(Cl)ccc12 (stereo not drawn) [CQ (6), chloroquine, reference compound]	–	–	–	–	–	–	–	–	IC50 ([1]; 3D7): 0.01508 ± 8e-05 µM
CC(C)[C@@H]1NC(=O)[C@H](Cc2c[nH]c3ccccc23)n2c1nc1ccccc1c2=O [Compound 10]	–	–	–	–	–	–	–	–	antimalarial activity (in words) [1]: inactive
CC(C)[C@H]1NC(=O)[C@@H](Cc2c[nH]c3ccccc23)n2c1nc1ccccc1c2=O [Compound 13]	0.15 ± 0.05	–	–	–	–	–	–	–	antimalarial activity (in words) [1]: decreased activity
CC(C)C[C@@H]1NC(=O)[C@H](Cc2c[nH]c3ccccc23)n2c1nc1ccccc1c2=O [Compound 14]	–	–	–	–	–	–	–	–	antimalarial activity (in words) [1]: inactive
CC(C)C[C@H]1NC(=O)[C@H](Cc2c[nH]c3ccccc23)n2c1nc1ccccc1c2=O [Compound 15]	2 ± 0.32	–	–	–	–	–	–	–	–
CC(C)C[C@H]1NC(=O)[C@@H](Cc2c[nH]c3ccccc23)n2c1nc1ccccc1c2=O [Compound 17]	0.47 ± 0.22	–	–	–	–	–	–	–	antimalarial activity (in words) [1]: decreased activity
O=C1N[C@H](Cc2ccc(O)cc2)c2nc3ccccc3c(=O)n2[C@H]1Cc1c[nH]c2ccccc12 [Compound 25]	4.18 ± 0.03	–	–	–	–	–	–	–	–
C[C@H]1NC(=O)[C@@H](Cc2c[nH]c3ccccc23)n2c1nc1ccccc1c2=O [Compound 26]	3.68 ± 0.62	–	–	–	–	–	–	–	–
CC(C)[C@@H]1NC(=O)[C@@H](Cc2c[nH]c3ccccc23)n2c1nc1ccc(Cl)cc1c2=O [Compound 27, (1S, 4R)-4-((1H-indol-3-yl)methyl)-8-chloro-1-isopropyl-1,2-dihydro-6H-pyrazino[2,1-b]quinazoline-3,6(4H)-dione]	–	inhibitory effect	> 64	32 (≈ 76 µM)	> 64	> 64	> 64	> 64	MIC (S. aureus 40/61/24; 40/61/24): 64 µg/mL (≈ 152 µM); MIC (E. faecalis ATCC 29212): 64 µg/mL (≈ 152 µM); antibacterial (inhibitory) effect (in words) (E. faecalis ATCC 29212): inhibitory effect; MIC (E. faecalis ATCC 29212; [5]): 32 µg/mL (≈ 76 µM); MBC (E. faecalis A5/102 (VRE)): > 64 µg/mL; MIC (E. faecalis A5/102 (VRE)): 64 µg/mL (≈ 152 µM); MBC (E. faecalis B3/101 (VRE)): > 64 µg/mL; MIC (E. faecalis B3/101 (VRE)): > 64 µg/mL
CC(C)C[C@@H]1NC(=O)[C@@H](Cc2c[nH]c3ccccc23)n2c1nc1ccc(Cl)cc1c2=O [Compound 28]	–	inhibitory effect	> 64	32 (≈ 73.6 µM)	> 64	> 64	> 64	> 64	MIC (S. aureus 40/61/24; 40/61/24): 64 µg/mL (≈ 147 µM); antibacterial (inhibitory) effect (in words) (E. faecalis ATCC 29212): inhibitory effect; MIC (E. faecalis ATCC 29212; [5]): 32 µg/mL (≈ 73.6 µM); MBC (E. faecalis A5/102 (VRE)): > 64 µg/mL; MIC (E. faecalis A5/102 (VRE)): 64 µg/mL (≈ 147 µM); MBC (E. faecalis B3/101 (VRE)): > 64 µg/mL; MIC (E. faecalis B3/101 (VRE)): > 64 µg/mL
CC[C@H](C)[C@@H]1NC(=O)[C@@H](Cc2c[nH]c3ccccc23)n2c1nc1ccc(Cl)cc1c2=O [Compound 29, (1S,4R)-4-((1H-indol-3-yl)methyl)-1-((S)-sec-butyl)-8-chloro-1,2-dihydro-6H-pyrazino[2,1-b]quinazoline-3,6(4H)-dione]	–	inhibitory effect	> 64	–	> 64	> 64	> 64	> 64	MIC [2]: 16 µg/mL (≈ 36.8 µM); MIC (S. aureus 40/61/24; 40/61/24): 64 µg/mL (≈ 147 µM); antibacterial (inhibitory) effect (in words) (E. faecalis ATCC 29212): inhibitory effect; MIC (E. faecalis ATCC 29212; [5]): 32 µg/mL (≈ 73.6 µM); MBC (E. faecalis A5/102 (VRE)): > 64 µg/mL; MIC (E. faecalis A5/102 (VRE)): 64 µg/mL (≈ 147 µM); MBC (E. faecalis B3/101 (VRE)): > 64 µg/mL; MIC (E. faecalis B3/101 (VRE)): > 64 µg/mL
CC(C)[C@@H]1NC(=O)[C@@H](Cc2c[nH]c3ccccc23)n2c1nc1c(Cl)cc(Cl)cc1c2=O [Compound 30, (1S, 4R)-4-((1H -indol-3-yl)methyl)-8,10-dichloro-1-isopropyl-1,2-dihydro-6H-pyrazino[2,1-b]quinazoline-3,6(4H)-dione]	–	inhibitory effect	> 64	16 (≈ 35.1 µM)	> 64	> 64	> 64	> 64	MIC (S. aureus 40/61/24; [6]): > 64 µg/mL; MIC (E. faecalis ATCC 29212; [7]): > 64 µg/mL
CCC(C)[C@@H]1NC(=O)[C@@H](Cc2c[nH]c3ccccc23)n2c1nc1c(Cl)cc(Cl)cc1c2=O (stereo partly drawn) [Compound 32, (1S, 4R)-4((1H-indol-3-yl)methyl)-1-((S)-sec-butyl) 8,10-dichloro-1,2-dihydro-6H-pyrazinoi[2,1-b]quinazoline-3,6(4H)-dione]	–	inhibitory effect	> 64	4 (≈ 8.52 µM)	> 64	> 64	8 (≈ 17 µM)	> 64	MIC (S. aureus 40/61/24; 40/61/24): 8 µg/mL (≈ 17 µM); MIC (E. faecalis ATCC 29212; [7]): > 64 µg/mL; IC50 ([1]; 3D7, 48 h): 1.51 ± 0.53 µM
CC(C)C[C@@H]1NC(=O)[C@@H](Cc2c[nH]c3ccccc23)n2c1nc1ccc(I)cc1c2=O [Compound 35, (1S,4R)-4-((1H-indol-3-yl)methyl)-8-iodo-1-isobutyl-1,2-dihydro-6H-pyrazino[2,1-b]quinazoline-3,6(4H)-dione]	–	inhibitory effect	> 64	16 (≈ 30.4 µM)	> 64	> 64	> 64	> 64	MIC (S. aureus 40/61/24; [6]): 64 µg/mL (≈ 122 µM); MIC (E. faecalis ATCC 29212; [7]): > 64 µg/mL
CC(C)C[C@@H]1NC(=O)[C@@H](Cc2c[nH]c3ccccc23)n2c1nc1ccc(Br)cc1c2=O [Compound 36, (1s,4R)-4-((1H-indol-3-yl)methyl)-8-bromo-1-isobutyl-1,2-dihydro-6H-pyrazino[2,1-b]quinazoline-3,6(4H)-dione]	–	inhibitory effect	> 64	16 (≈ 33.4 µM)	> 64	> 64	> 64	> 64	MIC (S. aureus 40/61/24; [6]): > 64 µg/mL; MIC (E. faecalis ATCC 29212; [7]): > 64 µg/mL
O=C1N[C@@H](Cc2ccc(OCc3ccccc3)cc2)c2nc3c(Cl)cc(Cl)cc3c(=O)n2[C@@H]1Cc1c[nH]c2ccccc12 [Compound 38]	–	–	–	–	–	–	–	–	IC50 ([1]; 3D7, 48 h): 4 ± 0.02 µM
CC(C)C[C@@H]1NC(=O)[C@@H](Cc2c[nH]c3ccccc23)n2c1nc1ccc(O)cc1c2=O [Compound 39]	0.73 ± 0.07	–	–	–	–	–	–	–	–
CC(C)C[C@@H]1NC(=O)[C@@H](Cc2c[nH]c3ccccc23)n2c1nc1cnccc1c2=O [Compound 42, (1S,4R)-4-((1H-indol-3-yl)methyl)-1-isobutyl-1,2-dihydro-6H-pyrazino[1,2-α]pyrido[3,4-d]pyrimidine-3,6(4H)-dione]	4 ± 0.02	–	–	–	–	–	–	–	–
CC(C)C[C@@H]1NC(=O)[C@@H](Cc2c[nH]c3ccccc23)n2c1nc1ncccc1c2=O [Compound 43]	3.76	–	–	–	–	–	–	–	–
CC(C)C[C@@H]1NC(=O)[C@@H](Cc2cc3ccccc3[nH]2)n2c1nc1cc(-c3nnnn3C)ccc1c2=O [Compound 44, (1S,4R)-4-((1H-indol-2-yl)methyl)-1-isobutyl-9-(1-methyl-1H-tetrazol-5-yl)-1,2-dihydro-6H-pyrazino [2,1-b]quinazoline-3,6(4H)-dione]	1.02 ± 0.27	–	–	–	–	–	–	–	antimalarial activity (in words) [1]: weak activity
